The assay concerns the target T1, human alpha7 receptor (Homo sapiens, UniProt P36544).
T1 construct: expressed in transfected cells; host or cells: Xenopus laevis oocytes (cDNA injected into the germinal vesicle)
Kind of assay: Acetylcholine-evoked currents in Xenopus oocytes with co-application of the alpha7 agonist. Type of assay: cell-based. As for the experimental part: FIG. 1 depicts a protocol for administering acetylcholine and (R)-7-chloro-N-(quinuclidin-3-yl)benzo[b]thiophene-2-carboxamide hydrochloride monohydrate to Xenopus oocytes.
FIG. 2 depicts the results of an assay showing the action of acetylcholine and (R)-7-chloro-N-(quinuclidin-3-yl)benzo[b]thiophene-2-carboxamide hydrochloride monohydrate.
In the study described below currents were measures in Xenopus oocytes. Acetylcholine at 40 micromolar was administered prior to administration of (R)-7-chloro-N-(quinuclidin-3-yl)benzo[b]thiophene-2-carboxamide is (R)-7-chloro-N-(quinuclidin-3-yl)benzo[b]thiophene-2-carboxamide hydrochloride monohydrate at 0.3 nM using the protocol depicted in FIG. 1. Currents were normalized to unity versus the average acetylcholine-evoked current measured during the stabilization period (4 time points).
The EC50 for an alpha7 receptor agonist can be measured using Xenopus oocytes as described previously (Boess et al. 2007 J Pharm Exp Therap 321:716; Methfessel et al., 1986 Pflueg Arch Eur J Physiol 407:577-588; Schnizler et at 2003 Receptors Channels 9:41-48). […] Solutions of test compounds in normal frog Ringer's solution are superfused through the recording chamber for 20 s while the voltage-clamp current is recorded. […] By testing with various concentration of the alpha7 receptor agonist the EC50 for agonism can be determined.

SMILES strings stand for the structures.

The record followed here is patent US20130231365A1, “Treatment of Inflammation with Certain Alpha-7 Nicotinic Acid Receptor Agonists in Combination with Acetylcholinesterase Inhibitors” (priority 2010, published 2013).

T1 sequence (P36544 23-502): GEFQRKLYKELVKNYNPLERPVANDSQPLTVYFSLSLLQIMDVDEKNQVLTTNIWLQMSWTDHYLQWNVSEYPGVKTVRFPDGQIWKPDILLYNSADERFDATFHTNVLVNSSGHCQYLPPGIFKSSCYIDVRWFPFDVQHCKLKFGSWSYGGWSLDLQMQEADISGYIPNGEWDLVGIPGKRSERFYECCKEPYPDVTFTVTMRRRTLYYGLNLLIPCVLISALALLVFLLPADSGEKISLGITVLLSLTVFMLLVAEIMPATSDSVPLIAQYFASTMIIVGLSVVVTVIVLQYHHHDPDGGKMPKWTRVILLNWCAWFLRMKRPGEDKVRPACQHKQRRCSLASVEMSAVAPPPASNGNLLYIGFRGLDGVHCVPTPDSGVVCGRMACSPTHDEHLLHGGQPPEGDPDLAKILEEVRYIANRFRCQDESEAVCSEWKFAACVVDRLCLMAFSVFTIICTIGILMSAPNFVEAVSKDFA

Turning to `Cl.O=C(N[C@H]1CN2CCC1CC2)c1cc2cccc(Cl)c2s1` [(R)-7-chloro-N-(quinuclidin-3-yl)benzo[b]thiophene-2-carboxamide hydrochloride monohydrate], the “acetylcholine-evoked current, normalized to unity versus the average current of the stabilization period” value (acetylcholine 40 micromolar given before compound at 0.3 nM, after 8 and 16 minutes incubation, average of 3 cells, FIG. 2) was “large current increase”. Further, the “effect when administered with acetylcholine” value (very low concentrations of compound, well below the expected EC50) was “synergistic effect”.
